We go through 1 compound from publication PMC8348686, “The Pharmacological Profile of Second Generation Pyrovalerone Cathinones and Related Cathinone Derivative” (International Journal of Molecular Sciences, 2021).

The experiment deals with T1, adrenergic α1A receptor (Homo sapiens, UniProt P35348).
T1 sequence (P35348 1-466): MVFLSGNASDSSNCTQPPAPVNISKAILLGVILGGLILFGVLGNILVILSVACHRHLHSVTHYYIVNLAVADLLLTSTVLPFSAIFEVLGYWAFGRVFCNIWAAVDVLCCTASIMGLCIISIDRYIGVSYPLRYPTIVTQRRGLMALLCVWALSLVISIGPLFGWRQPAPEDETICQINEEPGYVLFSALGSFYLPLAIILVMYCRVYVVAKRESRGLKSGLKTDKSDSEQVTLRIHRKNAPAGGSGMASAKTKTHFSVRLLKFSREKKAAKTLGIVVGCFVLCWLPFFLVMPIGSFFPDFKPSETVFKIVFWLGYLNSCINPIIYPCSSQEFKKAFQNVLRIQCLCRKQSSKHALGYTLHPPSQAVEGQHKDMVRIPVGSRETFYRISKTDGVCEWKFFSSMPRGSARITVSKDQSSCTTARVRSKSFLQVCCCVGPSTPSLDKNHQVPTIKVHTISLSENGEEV
As to the kind of experiment: Receptor binding, [3H]-prazosin.

Compound `Cc1ccc(C(=O)C(C)N2CCCC2)cc1` (stereo not drawn) [4-MePPP, 4-methyl-α-pyrrolidinopropiophenone] came in with a Ki of 2200 ± 100 nM.
